Test results from patent publication US20060069132A1, “Azolecarboxamide herbicides” (priority 2004, published 2006).

Legend:
velvetleaf [1] = test: Test A pre-/postemergence herbicide test; assay type: in vivo, Abutilon theophrasti
Outline: (§1)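 Greenhouse injury scoring (0–100, complete control = 100) at approximately ten days follows simultaneous pre- and postemergence application. Soil received a directed spray after seeding; seedlings of 2–10 cm at the one- to two-leaf stage were sprayed to runoff.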

velvetleaf [2] = test: Test B pre-/postemergence herbicide test; assay type: in vivo, Abutilon theophrasti; conditions: for Velvetleaf plant response rating: postemergence, visual rating, scale 0 (no effect) to 100 (complete control)
Outline: (§2)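 Herbicidal effect was judged by eye on a 0–100 scale after plants stood 13 to 15 days in the greenhouse following pre- or postemergence treatment with surfactant-containing formulations.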

[3] = test system: small flower umbrella sedge; test: Test B flooded paddy test; assay type: in vivo, Cyperus difformis; conditions: 1000 g ai/ha, visual rating, scale 0 to 100 (0 no effect, 100 complete control), 13 to 15 days
Outline: (§3)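 Scale 0–100: zero equals no visible effect, 100 complete control, judged by eye relative to controls. Timing: 13 to 15 days in greenhouse post-treatment. Growth stage at spraying: two leaves (paddy) or one to four leaves, 2–18 cm (postemergence).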

pigweed = test: Test B pre-/postemergence herbicide test; assay type: in vivo, Amaranthus retroflexus; conditions: for Pigweed plant response rating: postemergence, visual rating, scale 0 (no effect) to 100 (complete control)
Outline: as §2

wild oat = test: Test B postemergence herbicide test; assay type: in vivo, Avena fatua; conditions: postemergence, visual rating, scale 0 (no effect) to 100 (complete control)
Outline: (§4)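 Postemergence plants were sprayed with formulated test chemicals at 2 to 18 cm height (1- to 4-leaf stage); paddy species were grown to the 2-leaf stage. After 13 to 15 days in a greenhouse, injury was rated visually against untreated controls on a 0–100 scale (0 = no effect, 100 = complete control).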

barnyardgrass [4] = test: Test A pre-/postemergence herbicide test; assay type: in vivo, Echinochloa crus-galli
Outline: as §1

redroot pigweed = test: Test A pre-/postemergence herbicide test; assay type: in vivo, Amaranthus retroflexus
Outline: as §1

large crabgrass [5] = test: Test A pre-/postemergence herbicide test; assay type: in vivo, Digitaria sanguinalis
Outline: as §1

cocklebur = test: Test B pre-/postemergence herbicide test; assay type: in vivo, Xanthium strumarium; conditions: for Cocklebur plant response rating: postemergence, visual rating, scale 0 (no effect) to 100 (complete control)
Outline: (§5)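 Formulation: non-phytotoxic solvent mix with surfactant. Timing: preemergence on seed and postemergence on 2–18 cm plants, applied concurrently. Readout after 13–15 d greenhouse: visual 0–100 control rating against controls.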

giant foxtail [6] = test: Test A pre-/postemergence herbicide test; assay type: in vivo, Setaria faberi
Outline: as §1

morningglory [7] = test: Test A pre-/postemergence herbicide test; assay type: in vivo, Ipomoea spp.
Outline: as §1

large crabgrass [8] = test: Test B pre-/postemergence herbicide test; assay type: in vivo, Digitaria sanguinalis; conditions: for Crabgrass, Large plant response rating: postemergence, visual rating, scale 0 (no effect) to 100 (complete control)
Outline: as §2

ducksalad = test: Test B flooded paddy test; assay type: in vivo, Heteranthera limosa; conditions: 1000 g ai/ha, visual rating, scale 0 to 100 (0 no effect, 100 complete control), 13 to 15 days
Outline: as §3

wheat = test: Test B postemergence herbicide test; assay type: in vivo, Triticum aestivum; parameters: key to Wheat plant response rating: 0 = no effect, 100 = complete control; conditions: postemergence, visual rating, scale 0 (no effect) to 100 (complete control)
Outline: as §4

barnyardgrass [9] = test: Test B flooded paddy test; assay type: in vivo, Echinochloa crus-galli; conditions: 1000 g ai/ha, visual rating, scale 0 to 100 (0 no effect, 100 complete control), 13 to 15 days
Outline: as §3

barnyardgrass [10] = test: Test B pre-/postemergence herbicide test; assay type: in vivo, Echinochloa crus-galli; conditions: for Barnyardgrass plant response rating: postemergence, visual rating, scale 0 (no effect) to 100 (complete control)
Outline: as §5

blackgrass = test: Test B postemergence herbicide test; assay type: in vivo, Alopecurus myosuroides; conditions: postemergence, visual rating, scale 0 (no effect) to 100 (complete control)
Outline: as §3

Surinam grass = test: Test B pre-/postemergence herbicide test; assay type: in vivo, Urochloa decumbens; conditions: for Surinam Grass plant response rating: postemergence, visual rating, scale 0 (no effect) to 100 (complete control)
Outline: as §2

lambsquarters = test: Test B pre-/postemergence herbicide test; assay type: in vivo, Chenopodium album; conditions: for Lambsquarters plant response rating: postemergence, visual rating, scale 0 (no effect) to 100 (complete control)
Outline: as §2

corn = test: Test B pre-/postemergence herbicide test; assay type: in vivo, Zea mays; conditions: for Corn plant response rating: postemergence, visual rating, scale 0 (no effect) to 100 (complete control)
Outline: as §2

rice = test: Test B flooded paddy test; assay type: in vivo, Oryza sativa; conditions: 1000 g ai/ha, visual rating, scale 0 to 100 (0 no effect, 100 complete control), 13 to 15 days
Outline: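 Treated at 2-leaf (paddy) or 1–4-leaf, 2–18 cm (postemergence); greenhouse 13–15 d; visual score vs control, 0 none to 100 complete control; dash = not tested.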

morningglory [11] = test: Test B pre-/postemergence herbicide test; assay type: in vivo, Ipomoea coccinea; conditions: for Morningglory plant response rating: postemergence, visual rating, scale 0 (no effect) to 100 (complete control)
Outline: as §5

giant foxtail [12] = test: Test B pre-/postemergence herbicide test; assay type: in vivo, Setaria faberi; conditions: for Foxtail, Giant plant response rating: postemergence, visual rating, scale 0 (no effect) to 100 (complete control)
Outline: as §2

[13] = Postemergence, 500 g ai/ha, 0 to 100 scale, 0 no effect, 100 complete control
[14] = Postemergence, 2000 g ai/ha, 0 to 100 scale, 0 no effect, 100 complete control
[15] = Preemergence, 2000 g ai/ha, visual rating, 0 to 100 scale (0 no effect, 100 complete control)
[16] = preemergence, 500 g ai/ha, visual injury, 0 to 100 scale (0 no effect, 100 complete control)
[17] = 125 g ai/ha, 0 = no effect, 100 = complete control, preemergence
[18] = 500 g ai/ha, visual rating 0-100, 0 no effect, 100 complete control, preemergence

Structure (SMILES): CC(=O)c1cccc(NC(=O)c2cn(C(C)C)nc2C)c1 [Compound 179]
- Velvetleaf plant response rating (velvetleaf [1]; [13]): 0
- Plant response rating, Velvetleaf (velvetleaf [1]; [14]): 5
- Velvetleaf plant response rating (velvetleaf [1]; [15]): 0
- Velvetleaf plant response rating (velvetleaf [1]; [16]): 0
- Velvetleaf plant response rating (0 to 100 scale) (velvetleaf [2]; [17]): 0
- Plant response rating, Velvetleaf (velvetleaf [2]; [18]): 0
- Velvetleaf plant response rating (velvetleaf [2]; 125 g ai/ha): 0
- Velvetleaf plant response rating (velvetleaf [2]; 500 g ai/ha): 0
- Sedge, Umbrella plant response rating [3]: 0
- Pigweed plant response rating (0 to 100 scale) (pigweed; [17]): 0
- Plant response rating, Pigweed (pigweed; [18]): 0
- Pigweed plant response rating (pigweed; 125 g ai/ha): 0
- Pigweed plant response rating (pigweed; 500 g ai/ha): 0
- Oat, Wild plant response rating (wild oat; 125 g ai/ha): 0
- Oat, Wild plant response rating (wild oat; 500 g ai/ha): 0
- Barnyardgrass plant response rating (barnyardgrass [4]; [13]): 5
- Plant response rating, Barnyardgrass (barnyardgrass [4]; [14]): 10
- Barnyardgrass plant response rating (barnyardgrass [4]; [15]): 40
- Barnyardgrass plant response rating (barnyardgrass [4]; [16]): 0
- Pigweed plant response rating (redroot pigweed; [13]): 0
- Plant response rating, Pigweed (redroot pigweed; [14]): 10
- Pigweed plant response rating (redroot pigweed; [15]): 35
- Pigweed plant response rating (redroot pigweed; [16]): 0
- Crabgrass, Large plant response rating (large crabgrass [5]; [13]): 10
- Plant response rating, Crabgrass, Large (large crabgrass [5]; [14]): 10
- Crabgrass, Large plant response rating (large crabgrass [5]; [15]): 50
- Crabgrass, Large plant response rating (large crabgrass [5]; [16]): 0
- Cocklebur plant response rating (0 to 100 scale) (cocklebur; [17]): 0
- Plant response rating, Cocklebur (cocklebur; [18]): 0
- Cocklebur plant response rating (cocklebur; 125 g ai/ha): 0
- Cocklebur plant response rating (cocklebur; 500 g ai/ha): 0
- Foxtail, Giant plant response rating (giant foxtail [6]; [13]): 0
- Plant response rating, Foxtail, Giant (giant foxtail [6]; [14]): 10
- Foxtail, Giant plant response rating (giant foxtail [6]; [15]): 10
- Foxtail, Giant plant response rating (giant foxtail [6]; [16]): 0
- Morningglory plant response rating (morningglory [7]; [13]): 10
- Plant response rating, Morningglory (morningglory [7]; [14]): 30
- Morningglory plant response rating (morningglory [7]; [15]): 5
- Morningglory plant response rating (morningglory [7]; [16]): 0
- Crabgrass, Large plant response rating (0 to 100 scale) (large crabgrass [8]; [17]): 0
- Plant response rating, Crabgrass, Large (large crabgrass [8]; [18]): 0
- Crabgrass, Large plant response rating (large crabgrass [8]; 125 g ai/ha): 0
- Crabgrass, Large plant response rating (large crabgrass [8]; 500 g ai/ha): 0
- Ducksalad plant response rating (ducksalad): 0
- Wheat plant response rating (wheat; 125 g ai/ha): 0
- Wheat plant response rating (wheat; 500 g ai/ha): 0
- Barnyardgrass plant response rating (barnyardgrass [9]): 0
- Barnyardgrass plant response rating (0 to 100 scale) (barnyardgrass [10]; [17]): 0
- Plant response rating, Barnyardgrass (barnyardgrass [10]; [18]): 0
- Barnyardgrass plant response rating (barnyardgrass [10]; 125 g ai/ha): 0
- Barnyardgrass plant response rating (barnyardgrass [10]; 500 g ai/ha): 0
- Blackgrass plant response rating (blackgrass; 125 g ai/ha): 0
- Blackgrass plant response rating (blackgrass; 500 g ai/ha): 0
- Surinam Grass plant response rating (0 to 100 scale) (Surinam grass; [17]): 0
- Plant response rating, Surinam Grass (Surinam grass; [18]): 0
- Surinam Grass plant response rating (Surinam grass; 125 g ai/ha): 0
- Surinam Grass plant response rating (Surinam grass; 500 g ai/ha): 0
- Lambsquarters plant response rating (0 to 100 scale) (lambsquarters; [17]): 0
- Plant response rating, Lambsquarters (lambsquarters; [18]): 0
- Lambsquarters plant response rating (lambsquarters; 125 g ai/ha): 0
- Lambsquarters plant response rating (lambsquarters; 500 g ai/ha): 0
- Corn plant response rating (0 to 100 scale) (corn; [17]): 0
- Plant response rating, Corn (corn; [18]): 0
- Corn plant response rating (corn; 125 g ai/ha): 0
- Corn plant response rating (corn; 500 g ai/ha): 0
- Rice plant response rating (rice): 0
- Morningglory plant response rating (0 to 100 scale) (morningglory [11]; [17]): 0
- Plant response rating, Morningglory (morningglory [11]; [18]): 0
- Morningglory plant response rating (morningglory [11]; 125 g ai/ha): 0
- Morningglory plant response rating (morningglory [11]; 500 g ai/ha): 0
- Foxtail, Giant plant response rating (0 to 100 scale) (giant foxtail [12]; [17]): 0
- Plant response rating, Foxtail, Giant (giant foxtail [12]; [18]): 0
- Foxtail, Giant plant response rating (giant foxtail [12]; 125 g ai/ha): 0
- Foxtail, Giant plant response rating (giant foxtail [12]; 500 g ai/ha): 0
